From a melting point compilation (Tetko et al.; mined from patent text by program, amines drawn as free bases though some values may be those of a salt)

Compared with `N#Cc1cc2[nH]c(=O)c3n[nH]c(=O)n3c2cc1-n1ccnc1`, `N#Cc1cccc(CSc2nnc(-c3ccc4[nH]ncc4c3)o2)c1` is lower in melting point: over 300 °C for the first, 172 to 173 °C for the second.

First: COc1ccc(CSCC(NC(=O)c2ccccc2)C(=O)NC(C)(C)c2ccccc2)cc1 (configuration not stated)
Second: O=C(O)c1ccc(NCCOc2ccc3ccccc3c2)cc1
The melting point of the first is lower: 189 °C for the first, 208 to 211 °C for the second.

First: CC(C)(C)OC(=O)N1CC=C(c2c[nH]c3ccc([N+](=O)[O-])cc23)CC1
Second: CC(C)(C)OC(=O)N1CCC(C#N)(c2cccc(C(F)(F)F)c2)CC1
The melting point of the first is higher: 210 to 212 °C for the first, 72 to 73 °C for the second.

First: Cc1ccc([N+](=O)[O-])c(CC2NC(=O)NC2=O)c1C (configuration not stated)
Second: Cc1ccc2c(=O)cc[nH]c2c1[N+](=O)[O-]
The melting point of the first is lower: 172 to 174 °C for the first, over 250 °C for the second.

Compared with `Cc1oc2c(NC(=O)c3c(Cl)cccc3Cl)cc(NC(N)=O)cc2c1C`, `CCOC(=O)c1c(-c2ccccc2Cl)c2cc(CC)ccc2[nH]c1=O` is lower in melting point: over 250 °C for the first, 199 to 200 °C for the second.

Compared with `COc1cc(C)c(C(=O)c2c(Cl)cnc(Cl)c2C(F)(F)F)c(OC)c1OC`, `COc1ccc(CNc2nc(NCc3ccc(C(O)C(F)(F)F)cc3)nc3ncccc23)cc1OC` (configuration not stated) is higher in melting point: 106 to 109 °C for the first, 121 to 122 °C for the second.

First: O=C(CO[C@H]1CC[C@@H](CCNS(=O)(=O)c2ccc(Cl)cc2)CC1)Nc1nnn[nH]1
Second: Fc1ccc(Nc2ncnc3cnc(N4CCC(CCC5CCNCC5)CC4)nc23)cc1Cl
The melting point of the first is higher: 191 to 192 °C for the first, 112 to 114 °C for the second.

Compared with `Cc1cccc2c1N=C(Cl)c1cscc1O2`, `O=C1Nc2cccnc2Oc2ccccc21` is higher in melting point: 160 to 161 °C for the first, 268 to 270 °C for the second.

Compared with `O=C(O)c1ccc(C(=O)N2CCN(C(=O)N3CCOCC3)CC2)cc1`, `O=C(c1sccc1-n1cccc1)N1CCCCC1` is lower in melting point: 203 to 205 °C for the first, 126 °C for the second.

First: Oc1nsc(SCc2ccc(Cl)cc2)n1
Second: CC(=O)Nc1nc(CCc2ccc(CBr)cc2)cs1
The melting point of the first is lower: 138 °C for the first, 148 to 150 °C for the second.

First: O=C(Cc1ccccc1)NC1C(=O)N2CC(C(=O)OCc3ccccc3)SC12 (configuration not stated)
Second: O=C(OCC1OC(n2cc(F)c(=O)[nH]c2=O)C(O)C1OC(=O)c1ccccc1)c1ccccc1 (configuration not stated)
The melting point of the first is higher: 130 to 132 °C for the first, 93 to 97 °C for the second.

Compared with `N#Cc1ncc(-c2ccccc2)nc1Cl`, `CC(C)(C)Sc1cccc(-c2nc(=O)c3ccccc3s2)n1` is higher in melting point: 143 to 145 °C for the first, 153 to 154 °C for the second.

First: CC(=O)c1cc(Br)c(N)c(CN(C)C)c1
Second: CC(=O)c1c(C)oc(C)c1C(C)=O
The melting point of the first is higher: 92 to 95 °C for the first, 75 to 77 °C for the second.

First: CC(CNc1cc(Oc2ccc3c(C(=O)Nc4cc(C(C)(C)C)nn4-c4ccc(F)cc4)cccc3c2)ncn1)N(C)C (configuration not stated)
Second: CN1CCN(c2ccc(Nc3ncc4ccc(-c5ccccc5OCC(=O)OC(C)(C)C)n4n3)cc2)CC1
The melting point of the first is lower: 190 to 193 °C for the first, 193 to 195 °C for the second.

First: COc1ccc(C2(C#N)CC=C(C(=O)O)CC2)cc1OC1CCCC1 (configuration not stated)
Second: CN(C(=O)c1cc2ccccc2s1)c1ccc(N2CCC(O)CC2)c(C#N)c1
The melting point of the first is lower: 161 to 163 °C for the first, 211 to 212 °C for the second.

Compared with `CCOC(=O)NN=Cc1nc(C(C)(C)C)[nH]c1C`, `CC(C)(C)c1cc(C(O)CN)cc(C(C)(C)C)c1O` (configuration not stated) is lower in melting point: 226 to 228 °C for the first, 137 to 140 °C for the second.

Compared with `CNC(=O)CC1CN=C(c2cc3cc(Oc4ccc(CS(C)(=O)=O)nc4)cc(OC4CCOCC4)c3[nH]2)S1` (configuration not stated), `COc1ccnc(CSc2nc3cc4c(cc3[nH]2)OCO4)c1C` is higher in melting point: 157 to 158 °C for the first, 215 to 220 °C for the second.

First: C[C@@H]1[C@H](O)[C@@H](C)C=C(S(=O)(=O)c2ccccc2)[C@@H]2O[C@H]12
Second: CS(=O)(=O)n1ccc(-c2ccc(Oc3ccccc3)cc2)n1
The melting point of the first is lower: 118 to 120 °C for the first, 136 °C for the second.

Compared with `Nc1ncnc2c1ncn2OCC/C=C/P(=O)(O)O`, `Cc1nc(OCCCCn2cncn2)c([N+](=O)[O-])c(N2CCc3ccccc3CC2)n1` is lower in melting point: 238 °C for the first, 88 to 91 °C for the second.

First: N#Cc1cccc(-c2nc(Nc3ccc(C(=O)O)cc3)sc2-c2ccnnc2)c1
Second: Cc1ccc(C(=O)Nc2cccc(C(F)(F)F)c2)cc1-c1ccc2scnc2c1
The melting point of the first is higher: over 275 °C for the first, 200 to 202 °C for the second.

First: CCN(CC)CCN(C)C1(c2ccccc2Cl)C(=O)Nc2ccc(Cl)cc21 (configuration not stated)
Second: CCCCc1oc2ccccc2c1Cc1cc(I)c(OCCN(CC)CC)c(I)c1
The melting point of the first is higher: 140 °C for the first, 80 to 81 °C for the second.

First: CCOC(=O)c1c(N2CCCCC2)c(C#N)c(=O)n2ccccc12
Second: CCOC(=O)c1cn(CCCl)c2cc(Cl)c(F)cc2c1=O
The melting point of the first is lower: 143 to 144 °C for the first, 222 °C for the second.

First: CSc1ccc(-n2c(-c3ccc(Cl)cc3)nc(SC)c(C#N)c2=O)cc1
Second: CN(Cc1ccc(F)cc1)C1CCN(c2ccc(Cl)cc2)CC1
The melting point of the first is higher: 206 to 207 °C for the first, 72 to 73 °C for the second.

First: COC(=O)C(Cc1ccc([N+](=O)[O-])c(OCc2ccccc2)c1)(NC(=O)OC(C)(C)C)C(=O)OC
Second: COC(=O)C1=C(C)NC(C)=C(C(=O)NCCCN2CCN(c3ccccc3OC)CC2)C1c1cccc([N+](=O)[O-])c1 (configuration not stated)
The melting point of the first is higher: 114 to 116 °C for the first, 70 to 80 °C for the second.

Compared with `Cc1c(CO)ncnc1N1CCOCC1`, `CCCc1nc(N2CCOCC2)c2cscc2n1` is higher in melting point: 66 to 68 °C for the first, 102 to 105 °C for the second.

First: O=c1c(NCCCBr)c(OC2CCCCC2)c1=O
Second: CCOC(=O)C1CCCCCCCC(=O)N1 (configuration not stated)
The melting point of the first is lower: 68 to 70 °C for the first, 101 to 103 °C for the second.

First: COc1ccc(-c2[nH]nc3c2C(=O)c2c(NC(=O)CN)cccc2-3)cc1
Second: COc1ccc(-c2cc(C)sc2-c2ccc(OC)cc2)cc1
The melting point of the first is higher: over 300 °C for the first, 93 to 97 °C for the second.

Compared with `CCCOc1nsc(N=CN(C)C)c1C#N`, `CS(=O)(=O)c1ccc(Oc2ccc(C#N)cc2)nc1` is higher in melting point: 117 to 118 °C for the first, 195 to 196 °C for the second.

First: ON=CCc1cccs1
Second: O=CN(N=Cc1cccs1)c1ccc(Cl)cc1
The melting point of the first is lower: 92 °C for the first, 103 to 105 °C for the second.

First: CCOC(=O)C1CN(C(=O)c2ccccc2)CC1c1ccc(NC(=O)Cc2ccc(NC(=O)Nc3ccccc3C)c(OC)c2)cc1 (configuration not stated)
Second: Cc1ccccc1-c1ccc(C(=O)N2Cc3ccc(C(=O)CCc4cccnc4)n3Cc3ccccc32)cc1
The melting point of the first is lower: 130 °C for the first, 135 to 136 °C for the second.

First: O=C(NC1CCCc2c(O)cccc21)c1cccc(Cl)c1O (configuration not stated)
Second: COC(=O)C1CC=C(c2c(-c3ccccc3)[nH]c3ccccc23)CC1 (configuration not stated)
The melting point of the first is lower: 148 to 151 °C for the first, 175 to 177 °C for the second.

First: CCn1c(=O)n(O)c(=O)c2cc(F)c(F)cc21
Second: CCOC(=O)c1cn(C2CC2)c2c(Br)c(F)c(F)cc2c1=O
The melting point of the first is higher: 172 to 174 °C for the first, 164 to 168 °C for the second.

First: N#Cc1ccc2nc3c(c(=O)n2c1)SCC3
Second: O=S1(=O)c2cccc3cccc(c23)N1CCN1CC=C(c2ccccc2)CC1
The melting point of the first is higher: 261 to 263 °C for the first, 106 °C for the second.

First: CC(C)(C)c1ccc(O)c(CNS(=O)(=O)O)c1
Second: Cc1cc(SC2=C(O)CC(CCc3cccs3)(C(C)C)OC2=O)c(C(C)(C)C)cc1CO (configuration not stated)
The melting point of the first is higher: 260 to 262 °C for the first, 73 to 77 °C for the second.

Compared with `Fc1cc(F)c(COc2cccnc2NC(=S)Nc2ccc(Cl)cc2)c(F)c1`, `O=C(Nc1ccc(OCc2ccccn2)nc1)N1CCc2ccc(C(F)(F)F)cc21` is lower in melting point: 181 to 183 °C for the first, 178 to 179 °C for the second.

`N#CSc1cc(N)c(N)cc1Cl` and `Nc1cc(I)cnc1N` cannot be ordered by melting point: 108 to 110 °C for the first, 109 to 111 °C for the second.

Compared with `O=C(O)c1ccc(Cc2nc3ccccc3[nH]2)cc1`, `CCCc1ccc(C(=O)OCC)n1Cc1ccc(-c2ccccc2C(=O)O)cc1` is lower in melting point: 265 to 267 °C for the first, 111 to 115 °C for the second.

Compared with `Cc1cccc(Sc2c(O)cc(-c3ccccc3)oc2=O)c1`, `O=c1[nH]cc(Oc2ccccc2)cc1-c1csc(-c2ccncc2)n1` is higher in melting point: 197 to 198 °C for the first, 243 to 245 °C for the second.

Compared with `COC(=O)CC(CSc1ccc2ccccc2c1)C(=O)O` (configuration not stated), `COc1ccc2cc(C(C)C(=O)OC/C=C\COC(=O)OC(C)O[N+](=O)[O-])ccc2c1` (configuration not stated) is lower in melting point: 97 to 99 °C for the first, 76 to 78 °C for the second.

First: Nn1cc(I)c(=O)[nH]c1=O
Second: NC(=O)CN1C(=O)C[C@@H]2CCC[C@@H]21 (relative stereo)
The melting point of the first is higher: 195 to 196 °C for the first, 142 to 144 °C for the second.

First: COCCCCCCCCCCCc1nnn[nH]1
Second: Cc1ncn(CCCOc2c(C)cc(-c3nnn(C)n3)cc2C)n1
The melting point of the first is lower: 66.3 to 68.3 °C for the first, 101 to 103 °C for the second.

First: CCOC(=O)c1c(C(F)(F)F)nc(C(F)F)c(CO)c1CC
Second: COC(=O)C(=O)Oc1c(F)c(F)c(F)c(F)c1F
The melting point of the first is higher: 59.5 to 60.5 °C for the first, 34 to 35 °C for the second.

Compared with `CC(C)c1cccc(C(C)C)c1NC(=O)CN1CC2(CCCCC2)N(c2ccccc2)S1(=O)=O`, `CCOC(c1ccccc1)(c1ccccc1)c1ncn(S(=O)(=O)N(C)C)c1C` is higher in melting point: 140 to 142 °C for the first, 150 °C for the second.

Compared with `O=C(O[C@H]1Cc2c(O)cc(O)cc2O[C@@H]1c1ccc(O)c(O)c1)c1cc(O)c(O)c(O)c1`, `Nc1cc(-n2cc(C(=O)O)c(=O)c3c(O)c(F)c(F)cc32)c(F)cc1F` is higher in melting point: 105 to 107 °C for the first, over 270 °C for the second.

First: CN(C)C=C(C=O)c1cccc(C(F)(F)F)c1
Second: CC(C)N1Cc2c(-n3c(=O)cc(C(F)(F)F)[nH]c3=O)ccc(Cl)c2C1=O
The melting point of the first is lower: 128 to 132 °C for the first, over 250 °C for the second.

First: CC#CCOc1cc(Nc2cccc(F)c2F)ncn1
Second: CC(C)(C)OC(=O)Nc1ccc(C#Cc2ccc(F)cc2)cc1N
The melting point of the first is lower: 148 °C for the first, 180 °C for the second.

First: COc1ccc2sc(SCc3c(F)c(F)c(F)c(F)c3F)nc2c1
Second: O=c1oc2ccc(-c3ccc(F)cc3F)cc2c(=O)n1-c1ccccc1C(F)(F)F
The melting point of the first is lower: 71 to 75 °C for the first, 200 to 201 °C for the second.

Compared with `N#CC1(N2CCCCC2)CCCCC1`, `O=C1C2CC3CC2C(C(=O)O)(C3)N1Cc1ccccc1` (configuration not stated) is higher in melting point: 66 to 68 °C for the first, 191 to 194 °C for the second.

Compared with `O=C(Oc1ccccc1)c1ccc(N(Cc2ccccc2)Cc2ccccc2)cc1Cl`, `O=C1C(Cl)=C(Nc2ccc(S(=O)(=O)Nc3ccccc3)cc2)C(=O)c2ccccc21` is higher in melting point: 133 to 135 °C for the first, 220 to 223 °C for the second.

First: CC(=O)OCC1OC(n2cc(C)c(NO)nc2=O)CC1F (configuration not stated)
Second: CC(C)Nc1nc(Nc2cccc(NS(C)(=O)=O)c2)nc2[nH]cnc12
The melting point of the first is higher: 180 to 181 °C for the first, 161 to 165 °C for the second.

First: CC(Cl)(Cl)C(NC(=O)c1ccc(Cl)cc1)NC(=N[N+](=O)[O-])Nc1cccnc1 (configuration not stated)
Second: O=C(NO)c1ccc(CNC(=O)c2[nH]c(-c3ccc(O)cc3)cc2-c2ccoc2)cc1
The melting point of the first is higher: 170 to 172 °C for the first, 122 to 123 °C for the second.
